Assay results from patent publication US20070004760A1, “Fungicide mixtures for the control of rice pathogens” (priority 2003, published 2007).
Several values for one entry are separate records, joined by “and”; a condition that tells them apart may be missing. Equal entries are not always repeated. Where two headings read alike, the source gives them in different places.

Key:
Pyricularia oryzae = format: in vivo; conditions: individual active compound, rice 'Tai-Nong 67', protective, 6 days, untreated control 60% infection
Cochliobolus miyabeanus = assay: Activity against brown spot of rice caused by Cochliobolus miyabeanus, protective application; format: in vivo

SMILES	Efficacy in % of the untreated control (Pyricularia oryzae; 4 ppm in the spray liquor)	Efficacy in % of the untreated control (Pyricularia oryzae; 16 ppm in the spray liquor)	Efficacy in % of the untreated control (Cochliobolus miyabeanus; in vivo)	Efficacy in % of the untreated control (Cochliobolus miyabeanus; individual active compound, 4 ppm in the spray liquor, rice 'Tai-Nong 67', protective, six days, untreated control 90% infection)	Efficacy in % of the untreated control (Cochliobolus miyabeanus; individual active compound, 16 ppm in the spray liquor, rice 'Tai-Nong 67', protective, six days, untreated control 90% infection)
CO/N=C(/C(=O)OC)c1ccccc1CO/N=C(\C)c1cccc(C(F)(F)F)c1 [II (trifloxystrobin), methyl (E)-methoxyimino-{(E)-α-[1-(α,α,α-trifluoro-m-tolyl)ethylideneaminooxy]o-tolyl}acetate]	2%	2%	0%	–	–
C[C@H](Nc1c(-c2c(F)cc(F)cc2F)c(Cl)nc2ncnn12)C(F)(F)F [Comparison B]	–	67%	–	–	–
CC1CCN(c2c(-c3c(F)cc(F)cc3F)c(Cl)nc3ncnn23)CC1 [I, 5-chloro-7-(4-methylpiperidin-1-yl)-6-(2,4,6-trifluorophenyl)-[1,2,4]triazolo[1,5-a]pyrimidine]	–	67%	–	33%	33% and 56%
CC1CCN(c2c(-c3c(F)cccc3Cl)c(Cl)nc3ncnn23)CC1 [Comparison A]	–	59%	–	–	–
